Reference: patent US6569878B1, “Substituted 4-amino-thiazol-2-yl compounds as cyclin-dependent kinase inhibitors” (Agouron Pharmaceuticals Inc., priority 1997, dated 2003)
Where two headings read alike, the source gives them in different places.

Assays:
[1] = biological target: T1, complex of human CDK4 and cyclin D3 (Homo sapiens, UniProt P11802); experiment: Inhibition of CDK4/cyclin D retinoblastoma kinase activity (D-type cyclin is D3); type: biochemical; conditions: superscript a: D-type cyclin is D3, read-out: Ki CDK 4/D
T1 construct: made in house; host or cells: insect cells, co-infected with baculovirus
Experimental: Cyclin-dependent kinase activity was measured by quantifying the enzyme-catalyzed, time-dependent incorporation of radioactive phosphate from [^32P]ATP or [^33P]ATP into a protein substrate. […] Reactions were initiated with enzyme, incubated at 30° C., and terminated after 20 minutes by the addition of ethylenediaminetetraacetic acid (EDTA) to 250 mM. […] Radioactivity was quantified by exposing the dried membranes to a phosphorimager.
(§1) Apparent Ki values were measured by assaying enzyme activity in the presence of different inhibitor compound concentrations and subtracting the background radioactivity measured in the absence of enzyme. The kinetic parameters (kcat, Km for ATP) were measured for each enzyme under the usual assay conditions by determining the dependence of initial rates on ATP concentration. Inhibition data were fit to an equation for competitive inhibition using Kaleidagraph (Synergy Software), or were fit to an equation for competitive tight-binding inhibition using the software KineTic (BioKin, Ltd.).
Phosphorylated Rb substrate was captured by microfiltration on a nitrocellulose membrane and quantified using a phosphorimager as described above. For measurement of tight-binding inhibitors, the enzyme complex concentration was lowered to 5 nM, and the assay duration was extended to 60 minutes, during which the time-dependence of product formation was linear.

CDK2/cyclin A = biological target: T2, CDK2/cyclin A (Homo sapiens, UniProt P24941); experiment: Inhibition of CDK2/cyclin A retinoblastoma kinase activity; type: biochemical; conditions: read-out: Ki CDK 2/A
T2 construct: made in house; host or cells: CDK2: insect cells (baculovirus); cyclin A: E. coli, then limited proteolysis
Experimental: Cyclin-dependent kinase activity was measured by quantifying the enzyme-catalyzed, time-dependent incorporation of radioactive phosphate from [^32P]ATP or [^33P]ATP into a protein substrate. Unless noted otherwise, assays were performed in 96-well plates in a total volume of 50 μL, in the presence of 10 mM HEPES (N-[2-hydroxyethyl]piperazine-N′-[2-ethanesulfonic acid]) (pH 7.4), 10 mM MgCl2, 25 μM adenosine triphosphate (ATP), 1 mg/mL ovalbumin, 5 μg/mL leupeptin, 1 mM dithiothreitol, 10 mM β-glycerophosphate, 0.1 mM sodium vanadate, 1 mM sodium fluoride, 2.5 mM ethylene glycol-bis(β-aminoethyl ether)-N,N,N′N′-tetraacetic acid (EGTA), 2% (v/v) dimethylsulfoxide, and 0.03-0.4 μCi [^32/33P]ATP per reaction. Reactions were initiated with enzyme, incubated at 30° C., and terminated after 20 minutes by the addition of ethylenediaminetetraacetic acid (EDTA) to 250 mM. The phosphorylated substrate was then captured on a nitrocellulose or phosphocellulose membrane using a 96-well filtration manifold, and unincorporated radioactivity was removed by repeated washing with 0.85% phosphoric acid. Radioactivity was quantified by exposing the dried membranes to a phosphorimager.
as §1
CDK2 was purified using published methodology (Rosenblatt et al., “Purification and Crystallization of Human Cyclin-dependent Kinase 2,” J. Mol. Biol., vol. 230, 1993, pp. 1317-1319) from insect cells that had been infected with a baculovirus expression vector. […] Purified, proteolyzed cyclin A was included in the assay at a three- to five-fold molar excess to CDK2. Alternatively, a complex of CDK2 and proteolyzed cyclin A was prepared and purified by gel filtration. The substrate for this assay was the same Rb substrate fragment used for the CDK4 assays, and the methodology of the CDK2/cyclin A and the CDK4/cyclin D3 assays was essentially the same, except that CDK2 was present at 150 nM or 5 nM. Ki values were measured as described above.

T1 sequence (P11802 whole entry): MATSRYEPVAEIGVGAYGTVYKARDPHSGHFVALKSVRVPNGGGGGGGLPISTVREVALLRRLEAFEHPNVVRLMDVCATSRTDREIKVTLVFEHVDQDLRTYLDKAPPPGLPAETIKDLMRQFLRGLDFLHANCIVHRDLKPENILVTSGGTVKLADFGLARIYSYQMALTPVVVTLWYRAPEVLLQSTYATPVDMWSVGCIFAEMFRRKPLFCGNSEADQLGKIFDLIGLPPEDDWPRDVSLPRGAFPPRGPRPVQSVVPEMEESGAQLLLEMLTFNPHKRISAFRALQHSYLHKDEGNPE
T1 sequence (P30281 whole entry partner): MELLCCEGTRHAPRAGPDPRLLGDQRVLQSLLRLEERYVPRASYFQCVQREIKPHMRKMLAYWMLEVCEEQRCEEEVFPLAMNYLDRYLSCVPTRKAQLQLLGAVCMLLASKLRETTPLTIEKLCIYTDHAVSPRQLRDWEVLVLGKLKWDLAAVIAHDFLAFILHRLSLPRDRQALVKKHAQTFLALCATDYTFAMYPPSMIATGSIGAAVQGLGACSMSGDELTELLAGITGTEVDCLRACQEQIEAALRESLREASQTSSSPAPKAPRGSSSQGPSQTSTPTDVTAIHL

| Ki ([1]; apparent Ki) [µM] | Ki (CDK2/cyclin A) [µM] | Ki (CDK2/cyclin A; μM) [µM] | Ki ([1]; μM) [µM] | Structure (SMILES) |
| --- | --- | --- | --- | --- |
| 0.056 | 0.574 | – | – | Cc1cccc(C)c1C(=O)c1sc(Nc2ccc3nc[nH]c3c2)nc1N [C(60), [4-Amino-2-(1H-benzoimidazol-6-ylamino)-thiazol-5-yl]-(2,6-dimethyl-phenyl)-methanone] |
| 0.03 | 0.259 | – | – | Cc1cc(C)c(C(=O)c2sc(Nc3ccc4nc[nH]c4c3)nc2N)c(C)c1 [C(57), [4-Amino-2-(1H-benzoimidazol-6-ylamino)-thiazol-5-yl]-(2,4,6-trimethyl-phenyl)-methanone] |
| 0.057 | 0.02 | – | – | COc1ccc(C(=O)c2sc(Nc3ccc(S(N)(=O)=O)cc3)nc2N)c(OC)c1 [C(33), 4-[4-Amino-5-(2,4-dimethoxy-benzoyl)-thiazol-2-ylamino]-benzenesulfonamide] |
| 0.11 | 0.595 | – | – | CN(CC(=O)OC(C)(C)C)c1ccc(Nc2nc(N)c(C(=O)c3c(F)cccc3F)s2)cc1 [C(103), tert-Butyl({4-[4-Amino-5-(2,6-difluoro-benzoyl)-thiazol-2-ylamino]-phenyl}-methyl-amino)-acetate] |
| 0.023 | 0.178 | – | – | Nc1ccc(Cl)c(C(=O)c2sc(Nc3ccc4nc[nH]c4c3)nc2N)c1Cl [G, [4-Amino-2-(1H-benzoimidazol-6-ylamino)-thiazol-5-yl]-(3-amino-2,6-dichloro-phenyl)-methanone] |
| 1.2 | 4.7 | – | – | COc1ccc(C(=O)c2sc(Nc3ccc(N(C)C)cc3)nc2N)cc1 [C(3), [4-Amino-2-(4-dimethylamino-phenylamino)-thiazol-5-yl]-(4-methoxy-phenyl)-methanone] |
| 1.8 | – | 32 | – | Cc1cccc(-c2ccccc2)c1C(=O)c1sc(Nc2ccc(N3CCOCC3)cc2)nc1N [C(83), [4-Amino-2-(4-morpholin-4-yl-phenylamino)-thiazol-5-yl]-(3-methyl-biphenyl-2-yl)-methanone] |
| 0.35 | 0.336 | – | – | Cc1ccc(C(=O)c2sc(Nc3ccc(-n4ccnc4)cc3)nc2N)c(C)c1 [C(41), [4-Amino-2-(4-imidazol-1-yl-phenylamino)-thiazol-5-yl]-(2,4-dimethyl-phenyl)-methanone] |
| < 1 | – | – | – | COC(=O)c1cccc(C(=O)c2sc(Nc3cccc([N+](=O)[O-])c3)nc2N)c1 [I(17)] |
| 0.13 | – | – | – | Nc1nc(Nc2cccnc2)sc1C(=O)c1ccccc1[N+](=O)[O-] [A(11), [4-Amino-2-(pyridin-3-ylamino)-thiazol-5-yl]-(2-nitro-phenyl)-methanone] |
| ~0.128 | – | – | – | CC(=O)c1ccc(Nc2nc(N)c(C(=O)c3sccc3C)s2)cc1 [C(44), 1-{4-[4-Amino-5-(3-methyl-thiophene-2-carbonyl)-thiazol-2-ylamino]-phenyl}-ethanone] |
| 0.25 | – | – | – | COc1ccc(C(=O)c2sc(Nc3ccc(C)cc3)nc2N)c(OC)c1 [A(13), [4-Amino-2-(p-tolylamino)-thiazol-5-yl]-(2,4-dimethoxyphenyl)-methanone] |
| – | – | – | > 50 | COC(=O)c1cccc(Nc2nc(N)c(C(=O)c3ccc(Br)cc3)s2)c1 [I(14)] |
| – | – | – | > 25 | COc1ccc(C(=O)Nc2nc(N)c(C(=O)c3ccccc3[N+](=O)[O-])s2)cc1 [I(18)] |
| – | – | – | > 20 | COc1ccc(C(=O)c2sc(Nc3ccccc3)nc2N)cc1 [I(10)] |
| 0.072 | – | – | – | CCN(CC)c1ccc(Nc2nc(N)c(C(=O)c3ccccc3[N+](=O)[O-])s2)cc1 [C(17), [4-Amino-2-(4-diethylamino-phenylamino)-thiazol-5-yl]-(2-nitro-phenyl)-methanone] |
| 3 | – | – | – | Cc1c(C(=O)c2sc(Nc3ccc(N4CCOCC4)cc3)nc2N)ncn1C [C(77), [4-Amino-2-(4-morpholin-4-yl-phenylamino)-thiazol-5-yl]-(1,5-dimethyl-1H-imidazol-4-yl)-methanone] |
| 0.067 | – | – | – | N#Cc1cccc(Nc2nc(N)c(C(=O)c3ccccc3[N+](=O)[O-])s2)c1 [C(22)] |
| 0.13 | – | – | – | Nc1nc(Nc2ccc3c(c2)OCO3)sc1C(=O)c1ccccc1[N+](=O)[O-] [C(11), [4-Amino-2-(benzo[1,3]dioxol-5-yl-amino)-thiazol-5-yl]-(2-nitro-phenyl)-methanone] |
